Numbers after ± are expanded uncertainties.
Columns and labels:
[1] = Liquid; for mass density: 96 kPa, Vibrating tube method; for vapor or sublimation pressure: Index of refraction calibration data
[2] = refractive index (Na D-line) (dimensionless); xn = mol fraction of the nth substance listed; conditions: 298.15 K; 96 kPa; Liquid; Standard Abbe refractometry; x2 = 0
[3] = xn = mol fraction of the nth substance listed; conditions: 96 kPa, Liquid, Vibrating tube method, x2 = 0

CCOS(=O)(=O)[O-].CCn1cc[n+](C)c1 [1-ethyl-3-methylimidazolium ethyl sulfate]
[1]
Conditions	mass density [kg/m3]
288.16 K	1243.72 ± 3
293.16 K	1239.95 ± 3
298.14 K	1236.86 ± 3
298.15 K	1236.86 ± 3
303.14 K	1233.58 ± 2.9
308.15 K	1229.9 ± 2.9
313.15 K	1226.73 ± 2.9
318.16 K	1223.17 ± 2.9
323.15 K	1219.99 ± 2.9

CCCCC=O [pentanal]
[1]
Conditions	mass density [kg/m3]	vapor or sublimation pressure [kPa]
288.15 K	814.15 ± 0.24	–
293.14 K	809.45 ± 0.24	–
298.14 K	804.73 ± 0.24	–
298.15 K	804.73 ± 0.24	–
303.15 K	799.97 ± 0.24	–
308.15 K	795.17 ± 0.24	–
313.14 K	790.33 ± 0.24	–
318.14 K	785.46 ± 0.24	–
323.14 K	780.55 ± 0.24	–
376.2 K	–	101.3 ± 1

CCC=O [propanal]
[1]
Conditions	mass density [kg/m3]	vapor or sublimation pressure [kPa]
288.14 K	807.26 ± 0.24	–
293.15 K	801.06 ± 0.24	–
298.15 K	794.85 ± 0.24	–
303.15 K	788.72 ± 0.24	–
308.16 K	782.55 ± 0.24	–
313.15 K	776.53 ± 0.24	–
321.2 K	–	101.3

CCOS(=O)(=O)[O-].CCn1cc[n+](C)c1 [1-ethyl-3-methylimidazolium ethyl sulfate] + CCC=O
Conditions	refractive index
[2]	1.4817 ± 0.0008

[3]
Conditions	mass density [kg/m3]
288.16 K	1243.72 ± 3
293.16 K	1239.95 ± 3
298.14 K	1236.86 ± 3
303.14 K	1233.58 ± 2.9
308.15 K	1229.9 ± 2.9
313.15 K	1226.73 ± 2.9

CCOS(=O)(=O)[O-].CCn1cc[n+](C)c1 [1-ethyl-3-methylimidazolium ethyl sulfate] + CCCCC=O
Conditions	refractive index
[2]	1.4817 ± 0.0008

[3]
Conditions	mass density [kg/m3]
288.16 K	1243.72 ± 3
293.16 K	1239.95 ± 3
298.14 K	1236.86 ± 3
303.14 K	1233.58 ± 2.9
308.15 K	1229.9 ± 2.9
313.15 K	1226.73 ± 2.9
318.16 K	1223.17 ± 2.9
323.15 K	1219.99 ± 2.9

— the NIST ThermoML archive (doi:10.1016/j.jct.2011.01.008)
